Test results as given in the supplement of paper PMC5908809.

Tests used:
[1] = system: normal NK cells expanded with K562-aAPC; test: percent inhibition of viability; higher = more inhibition; details: 72 h, IL-2 2.5 ng/mL
Protocol: (§1)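 Drug sensitivity and resistance testing on K562-aAPC-expanded normal NK cells: 5 concentrations (10-fold steps over a 10,000-fold range), 72 h at 37 °C, viability by CellTiter-Glo normalised to DMSO and benzethonium chloride controls; DSS from the fitted curve.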

DERL-7 (IL-2 2.5 ng/mL) [2] = test: as above; details: 72 h
IMC-1 (IL-2 20 ng/mL) [3] = test: as above; details: 72 h
KAI3 (IL-2 2.5 ng/mL) [4] = test: as above; details: 72 h
KHYG-1 (IL-2 2.5 ng/mL) [5] = test: as above; details: 72 h
NK-92 (IL-2 2.5 ng/mL) [6] = test: as above; details: 72 h
NK-YS (IL-2 2.5 ng/mL) [7] = test: as above; details: 72 h
NKL (IL-2 2.5 ng/mL) [8] = test: as above; details: 72 h
SNK-6 (IL-2 2.5 ng/mL) [9] = test: as above; details: 72 h
YT (IL-2 2.5 ng/mL) [10] = test: as above; details: 72 h
[11] = system: normal primary NK cells, pool 1 (3 donors) (IL-2 2.5 ng/mL); test: as above; details: 72 h
[12] = system: normal primary NK cells, pool 1 (3 donors), resting (IL-2 0 ng/mL); test: as above; details: 72 h
[13] = system: normal primary NK cells, pool 2 (3 donors) (IL-2 2.5 ng/mL); test: as above; details: 72 h
[14] = system: normal primary NK cells, pool 3 (3 donors) (IL-2 2.5 ng/mL); test: as above; details: 72 h
[15] = system: normal NK cells expanded with K562-aAPC; test: drug sensitivity score (DSS) (DSS units); higher = more sensitive; extreme values may be limits of the assay; details: 72 h; IL-2 2.5 ng/mL
Protocol: as §1

DERL-7 (IL-2 2.5 ng/mL) [16] = test: as above; details: 72 h
IMC-1 (IL-2 20 ng/mL) [17] = test: as above; details: 72 h
KAI3 (IL-2 2.5 ng/mL) [18] = test: as above; details: 72 h
KHYG-1 (IL-2 2.5 ng/mL) [19] = test: as above; details: 72 h
NK-92 (IL-2 2.5 ng/mL) [20] = test: as above; details: 72 h
NK-YS (IL-2 2.5 ng/mL) [21] = test: as above; details: 72 h
NKL (IL-2 2.5 ng/mL) [22] = test: as above; details: 72 h
SNK-6 (IL-2 2.5 ng/mL) [23] = test: as above; details: 72 h
YT (IL-2 2.5 ng/mL) [24] = test: as above; details: 72 h
[25] = system: normal primary NK cells, pool 1 (3 donors) (IL-2 2.5 ng/mL); test: as above; details: 72 h
[26] = system: normal primary NK cells, pool 1 (3 donors), resting (IL-2 0 ng/mL); test: as above; details: 72 h
[27] = system: normal primary NK cells, pool 2 (3 donors) (IL-2 2.5 ng/mL); test: as above; details: 72 h
[28] = system: normal primary NK cells, pool 3 (3 donors) (IL-2 2.5 ng/mL); test: as above; details: 72 h

CC(C)c1cc(-c2n[nH]c(=O)n2-c2ccc3c(ccn3C)c2)c(O)cc1O [Ganetespib] (max concentration tested 1000 nM)
percent inhibition of viability [%]
Details | 0.1 nM | 1 nM | 10 nM | 100 nM | 1000 nM
DERL-7 (IL-2 2.5 ng/mL) [2] | -4.38 | 6.84 | 68.9 | 101 | 101
IMC-1 (IL-2 20 ng/mL) [3] | -2.6 | -2.72 | -0.68 | 99.7 | 101
KAI3 (IL-2 2.5 ng/mL) [4] | -0.77 | -8.2 | 40.1 | 101 | 107
KHYG-1 (IL-2 2.5 ng/mL) [5] | 1.44 | 4.41 | 5.54 | 99.7 | 109
NK-92 (IL-2 2.5 ng/mL) [6] | -6.96 | -10.1 | 22.3 | 97.8 | 105
NK-YS (IL-2 2.5 ng/mL) [7] | -2.27 | -6.04 | 33.9 | 101 | 107
NKL (IL-2 2.5 ng/mL) [8] | -3.59 | 1.19 | 45.1 | 90 | 92.9
SNK-6 (IL-2 2.5 ng/mL) [9] | -23.6 | -15.5 | 5.21 | 86.1 | 88.1
YT (IL-2 2.5 ng/mL) [10] | -3.81 | -4.31 | 1.84 | 93.2 | 99.1
[1] | -7.81 | -3.48 | 56 | 98.1 | 99.3
[11] | 1.74 | 4.42 | 62.4 | 86.4 | 86.4
[12] | 2.3 | -0.42 | 39.1 | 41.8 | 52.9
[13] | -4.93 | 1.18 | 65.2 | 77.6 | 79.6
[14] | -14.5 | -11 | 45.4 | 78.5 | 79.9

Details | drug sensitivity score
DERL-7 (IL-2 2.5 ng/mL) [16] | 26.6
IMC-1 (IL-2 20 ng/mL) [17] | 17.9
KAI3 (IL-2 2.5 ng/mL) [18] | 23.3
KHYG-1 (IL-2 2.5 ng/mL) [19] | 18.7
NK-92 (IL-2 2.5 ng/mL) [20] | 21.4
NK-YS (IL-2 2.5 ng/mL) [21] | 22.8
NKL (IL-2 2.5 ng/mL) [22] | 22
SNK-6 (IL-2 2.5 ng/mL) [23] | 16.5
YT (IL-2 2.5 ng/mL) [24] | 17.1
[15] | 24.6
[25] | 23.5
[26] | 14.4
[27] | 22.3
[28] | 20.1

O=C(Nc1cccc(C(F)(F)F)c1)Nc1cc(S(=O)(=O)NC2CC2)ccc1-c1ccsc1 [AGI-6780] (max concentration tested 10000 nM)
percent inhibition of viability [%]
Details | 1 nM | 10 nM | 100 nM | 1000 nM | 10000 nM
DERL-7 (IL-2 2.5 ng/mL) [2] | 2.8 | 2.88 | 5.06 | 7.2 | 42.2
IMC-1 (IL-2 20 ng/mL) [3] | -3.83 | -6.4 | -1.13 | -1.96 | 12.3
KAI3 (IL-2 2.5 ng/mL) [4] | 7.81 | -7.37 | -5.02 | -1.47 | 24.4
KHYG-1 (IL-2 2.5 ng/mL) [5] | 0.2 | -3.96 | -1.95 | 2.69 | 43.5
NK-92 (IL-2 2.5 ng/mL) [6] | -7.9 | -10.9 | -5.67 | 20.1 | 65.8
NK-YS (IL-2 2.5 ng/mL) [7] | -0.22 | 0.5 | -0.98 | 2.65 | 23.1
NKL (IL-2 2.5 ng/mL) [8] | -8.69 | -12.6 | -8.03 | -5.7 | 20.2
SNK-6 (IL-2 2.5 ng/mL) [9] | -7.22 | 11.7 | 2.33 | 11.1 | 32.3
YT (IL-2 2.5 ng/mL) [10] | -2.18 | -6.24 | -5.3 | 5.28 | 46.9
[1] | -7.15 | -5.5 | -5.48 | -5.66 | 6.74
[11] | -6.68 | -2.93 | 8.08 | 7.42 | 23.6
[12] | 2.29 | 1.29 | 13 | 17.2 | 44.5
[13] | -16 | -3.85 | -3.48 | 9.29 | 20.2
[14] | -11.5 | -1.88 | -0.35 | 8.79 | 8.51

Details | drug sensitivity score
DERL-7 (IL-2 2.5 ng/mL) [16] | 3.34
IMC-1 (IL-2 20 ng/mL) [17] | 0.03
KAI3 (IL-2 2.5 ng/mL) [18] | 0.81
KHYG-1 (IL-2 2.5 ng/mL) [19] | 2.61
NK-92 (IL-2 2.5 ng/mL) [20] | 6.57
NK-YS (IL-2 2.5 ng/mL) [21] | 1.21
NKL (IL-2 2.5 ng/mL) [22] | 0.4
SNK-6 (IL-2 2.5 ng/mL) [23] | 2.72
YT (IL-2 2.5 ng/mL) [24] | 3.31
[15] | 0
[25] | 1.25
[26] | 4.5
[27] | 1.59
[28] | 0

Nc1nc(N)c2nc(-c3cccc(O)c3)c(-c3cccc(O)c3)nc2n1 [TG100-115] (max concentration tested 10000 nM)
percent inhibition of viability [%]
Details | 1 nM | 10 nM | 100 nM | 1000 nM | 10000 nM
DERL-7 (IL-2 2.5 ng/mL) [2] | -6.88 | -4.08 | 5.03 | -4.31 | 3.35
IMC-1 (IL-2 20 ng/mL) [3] | -0.94 | 5.84 | 4.32 | 14.9 | 34.2
KAI3 (IL-2 2.5 ng/mL) [4] | -5.91 | 4.12 | -4.09 | -1.44 | 13.4
KHYG-1 (IL-2 2.5 ng/mL) [5] | 0.48 | 4.75 | 4.43 | 9.36 | 24.5
NK-92 (IL-2 2.5 ng/mL) [6] | -2.65 | 1.92 | 7.95 | 3.09 | 17.8
NK-YS (IL-2 2.5 ng/mL) [7] | -1.11 | -1.59 | 0.64 | 4.73 | 8.38
NKL (IL-2 2.5 ng/mL) [8] | -7.69 | -0.08 | 0.45 | 6.08 | 27.7
SNK-6 (IL-2 2.5 ng/mL) [9] | 0.36 | 13.3 | 17.1 | 53.8 | 39
YT (IL-2 2.5 ng/mL) [10] | 1.25 | 2.49 | 4.53 | 4.76 | 12.3
[1] | -2.77 | -3.08 | 0.07 | 6.14 | 26.9
[11] | 6.61 | -12.2 | -0.36 | -3.46 | 18.8
[12] | 0.41 | -21.8 | -6.01 | -19 | 16.1
[13] | -11.3 | -4.42 | 12.3 | 5.35 | 21.7
[14] | -6.73 | -4.4 | 7.77 | -1.79 | 13.7

Details | drug sensitivity score
DERL-7 (IL-2 2.5 ng/mL) [16] | 0
IMC-1 (IL-2 20 ng/mL) [17] | 2.97
KAI3 (IL-2 2.5 ng/mL) [18] | 0
KHYG-1 (IL-2 2.5 ng/mL) [19] | 1.47
NK-92 (IL-2 2.5 ng/mL) [20] | 0.35
NK-YS (IL-2 2.5 ng/mL) [21] | 0
NKL (IL-2 2.5 ng/mL) [22] | 2.07
SNK-6 (IL-2 2.5 ng/mL) [23] | 10.8
YT (IL-2 2.5 ng/mL) [24] | 0
[15] | 2.01
[25] | 0.36
[26] | 0.1
[27] | 1.02
[28] | 0.09
